{"source": "patent US8512678B2", "about": "“Non-invasive, in vivo fluorescent imaging of the nervous system in whole living animal” (priority 2005, dated 2013)", "key": {"[1]": {"test_system": "GFAP-GFP transgene", "experiment": "Non-invasive in vivo neural imaging of GFAP-GFP transgenic neonatal mice (relative fluorescence, IVIS)", "design": "species or system mouse", "conditions": "for increase in relative fluorescence (RF), mean, compared to 0 hr: 6 hr after treatment; for increase in relative fluorescence (RF), mean, over the control group: 6 hr post-treatment, P<0.01", "text": "The generation and genotyping of the transgenic GFAP-GFP mice were done as previously described (Zhuo et al., 1997). Neonatal mice of FVB/N background at 4 days of age, weighing 2.0 g-2.5 g were used in the present study. Animal husbandry was provided by National University of Singapore animal holding unit facility. The experimental protocol covering the current study was approved by the Institutional Animal Care and Use Committee.\nThe neonatal mice received a single subcutaneous (sc) injection of 2′-CH3-MPTP (12 mg/kg in saline) at 0 hour. Saline was used as a vehicle for the control group. Neural imaging was subsequently performed at 2 hr, 4 hr, 6 hr and 8 hr post-treatment.\nNon-invasive imaging was conducted using an IVIS Imaging System 100 Series (Xenogen Corp., Alameda, Calif., U.S.A.). A 2′-CH3-MPTP-treated pair comprising of a transgenic and a non-transgenic neonatal mouse was positioned beside one another and held in position without anesthesia by physically restraining the mice on the lower back using tape. […] Subsequently, the pair of neonatal mice were fluorescently imaged with the GFP filter set equipped with the IVIS system. The image acquisition time was ten seconds. The same procedure was applied on the control pair injected with saline as well. Result of the neurotoxic effect of 2′-CH3-MPTP on the mice was expressed as relative fluorescence (RF), a ratio between the total GFP fluorescent signals detected from the region of interest (ROI) in transgenic (Tg) mouse and the tissue autofluorescence signals from the ROI in non-transgenic (nTg) mouse (TgROI/nTgROI). The area of the ROI for both mice is exactly the same and is identical throughout all the ROI used in the study to quantify the radiances. To minimize any variations due to the imaging system, three images were captured for each pair of treated and control mice and the mean value derived used as the quantitative reading for that particular pair. The values of the control (n=5 pairs of mice) and treated groups (n=5 pairs of mice) were expressed as means±SEM and statistical significance was evaluated using Student's two-tailed paired t-test.\nThe neurotoxin used was 2′-CH3-MPTP.\nThe neurotoxins used were 2′-CH3-MPTP and Kainic Acid (KA). […] KA was used in dosages 2 mg/kg with one injection. All injections were carried out subcutaneously."}, "[2]": {"test_system": "GFP gene expression", "experiment": "Real-time RT-PCR of brain RNA, GFP gene expression", "assay_type": "in vivo, mouse", "conditions": "transgenic mice, 2 hours after treatment, 1×2 mg/kg, p<0.05", "protocol": "(§1) […] The brain was removed and then lysed in buffer RA1 and β-mercaptoethanol. Total RNA from the brain was isolated using NucleoSpin® RNA II kit. Total RNA was reverse-transcribed with random hexamers and real-time RT-PCR was performed on the cDNA to quantify gene expression.\n(§2) The brain was removed and then lysed in buffer RA1 and β-mercaptoethanol. Total RNA from the brain was isolated using NucleoSpin® RNA II kit. Total RNA was reverse-transcribed with random hexamers and real-time RT-PCR was performed on the cDNA to quantify gene expression. The same procedure is carried out for mice treated with KA (1×2 mg/kg)."}, "[3]": {"test_system": "GFAP gene expression", "experiment": "Real-time RT-PCR of brain RNA, GFAP gene expression", "assay_type": "in vivo, mouse", "conditions": "transgenic mice, 2 hours after treatment, 1×2 mg/kg, p<0.01", "protocol": "as §1, §2"}, "[4]": {"test_system": "GFP expression in the astrocytes", "experiment": "Confocal imaging of endogenous GFP with GFAP immunostaining in brain cryosections", "assay_type": "in vivo, mouse", "conditions": "for GFP expression in the astrocytes: Tg mice", "protocol": "(§3) In order to determine whether the photons were being emitted from the astrocytes in the CNS, the brains were harvested and fixed with 4% paraformaldehyde in 0.1 M phosphate buffer saline (PBS, pH 7.4) for 4 hr at 4° C. The brains were then washed three times in PBS with an incubation time of 15 min each time before soaking in 30% sucrose overnight at 4° C. All brains were embedded in freezing medium after immersing the tissues in liquid nitrogen prior to mounting and sectioning them using a cryostat (Leica Microsystems, Nussloch GmbH; CM-3050S). Coronal cryosections, 20 μm in thickness of the substantia nigra (bregma −3.16 mm, interaural 0.64 mm) were used for immunohistochemistry according to the Atlas of Mouse brain (Franklin and Paxinos, 2001). Each of the control and treated group contained 4 animals […].\nFor tyrosine hydroxylase (TH) and GFAP immunostaining, a rabbit anti-TH polyclonal antibody (Chemicon International, Temecula, Calif., USA; Ab-152) and a rabbit anti-GFAP polyclonal antibody (DakoCytomation, Denmark; Z-0334) were used. The cryosections were washed for 5 min in 0.15 M 1×PBS followed by incubating for 4 hr at 4° C. in blocking solution of PBS containing 0.1% (v/v) Triton X-100 and 10% nonimmune goat serum. The cryosections were then washed in 0.15 M 1×PBS three times, each for 15 min. The brain sections were then incubated overnight with anti-TH antibody (1:200) and anti-GFAP antibody (1:200), in 1×PBS containing 0.01% (v/v) Triton X-100 and 1% nonimmune goat serum at 4° C. After a three times 15 min rinse in 1×PBS, the sections were incubated with Texas-red conjugated goat polyclonal to rabbit secondary IgG antibody (Abcam Ltd, Cambridge, U.K.; Ab-7088) at 1:100 dilution in PBS containing 0.01% (v/v) Triton X-100 and 1% nonimmune goat serum for 2 hr at room temperature. After another three times 15 min rinse in 1×PBS, the sections were coverslipped in 10 μl of the fluorescence medium and viewed under the confocal laser scanning microscope (Olympus Optical Co. Ltd. Tokyo, Japan; IX-71)."}, "[5]": {"test_system": "tyrosine hydroxylase (TH) immuno-positive dopaminergic neurons", "experiment": "TH immunostaining in the substantia nigra compact (SNC)", "assay_type": "in vivo, mouse", "conditions": "6 hr after 12 mg/kg sc, neonatal mice", "protocol": "as §3\nFor tyrosine hydroxylase (TH) and GFAP immunostaining, a rabbit anti-TH polyclonal antibody (Chemicon International, Temecula, Calif., USA; Ab-152) and a rabbit anti-GFAP polyclonal antibody (DakoCytomation, Denmark; Z-0334) were used. […] After another three times 15 min rinse in 1×PBS, the sections were coverslipped in 10 μl of the fluorescence medium and viewed under the confocal laser scanning microscope (Olympus Optical Co. Ltd. Tokyo, Japan; IX-71)."}}, "note": "Entries after “also recorded” stand apart in the source; their conditions may differ.", "data": [{"smiles": "CN1CC=C(c2ccccc2)CC1", "note": "[MPTP, 1-methyl-4-phenyl-1,2,3,6-tetrahydropyridine]", "values": [{"measurement": "difference in RF between the different time intervals", "setting": "[1]; single dose 12 mg/kg sc, neonatal transgenic mice (FIG. 9)", "value": "no significant difference"}]}, {"smiles": "C=C(C)[C@H]1CN[C@H](C(=O)O)[C@H]1CC(=O)O", "note": "[KA, Kainic acid]", "values": [{"measurement": "enhancement in gene expression of GFP", "setting": "[2]", "value": "~22", "unit": "%"}, {"measurement": "enhancement in gene expression of GFAP", "setting": "[3]", "value": "about 21%"}, {"measurement": "GFP expression in the astrocytes", "setting": "[4]; various areas of the hippocampus (CA1, CA2, CA3), 6 hr after one-time 2 mg/kg sc", "value": "evidently increased"}, {"measurement": "increase in relative fluorescence (RF), mean, compared to 0 hr", "setting": "[1]; single dose 2 mg/kg sc, P<0.05", "value": 22, "unit": "%"}, {"measurement": "increase in relative fluorescence (RF), mean, over the control group", "setting": "[1]; single dose 2 mg/kg sc, neonatal mice", "value": 25, "unit": "%"}, {"measurement": "difference in relative fluorescence (RF) between treated and control group", "setting": "[1]; single dose 2 mg/kg sc, at 4 hr and 6 hr after treatment", "value": "significant difference"}]}, {"smiles": "Cc1ccccc1C1=CCN(C)CC1", "note": "[2′-CH3-MPTP, 1-methyl-4-(2′-methylphenyl)-1,2,3,6-tetrahydropyridine]", "values": [{"measurement": "TH immuno-positive fibers and cell bodies / TH-like immunoreactivity", "setting": "[5]", "value": "No visual reduction; also recorded: No obvious changes"}, {"measurement": "expression of the GFAP-GFP transgene in the astrocytes", "setting": "[4]; SNC sections, 6 hr post-treatment as compared to 0 hr, 12 mg/kg sc", "value": "up-regulation"}, {"measurement": "GFP expression in the astrocytes", "setting": "[4]; ventricle and hippocampus area, 6 hr after one-time 12 mg/kg sc", "value": "evidently increased"}, {"measurement": "increase in relative fluorescence (RF), mean, compared to 0 hr", "setting": "[1]; single dose 12 mg/kg sc, neonatal mice, P<0.0001", "value": 17, "unit": "%"}, {"measurement": "increase in relative fluorescence (RF), mean, over the control group", "setting": "[1]; single dose 12 mg/kg sc, neonatal mice, brain ROI", "value": 22, "unit": "%"}, {"measurement": "difference in relative fluorescence (RF) between treated and control group", "setting": "[1]; single dose 12 mg/kg sc, at 4 hr, 6 hr and 8 hr after treatment", "value": "significant difference"}]}]}
